Measured values taken from patent publication US10590123B2, “Pesticidally active amide heterocyclic derivatives with sulphur containing substituents” (SYNGENTA PARTICIPATIONS AG, priority 2014, dated 2020).

Columns and labels:
Type in all cases: in vivo
[1] = system: Plutella xylostella (Diamond Back Moth); experiment: Example B3: Activity against Plutella xylostella, artificial diet; conditions: 120 h, application rate 200 ppm, L2 larvae, 5 days after infestation, read-out: effect in at least one of the two categories (mortality or growth inhibition)
Method: Example B3: Activity Against Plutella xylostella (Diamond Back Moth)
24-well microtiter plates with artificial diet were treated with aqueous test solutions prepared from 10′000 ppm DMSO stock solutions by pipetting. After drying, the plates were infested with L2 larvae (10 to 15 per well). The samples were assessed for mortality and growth inhibition in comparison to untreated samples 5 days after infestation.

[2] = system: Myzus persicae (Green Peach Aphid); experiment: Example B8: Activity against Myzus persicae, sprayed sunflower leaf discs; conditions: foliar, 144 h, application rate 200 ppm, aphid population of mixed ages, 6 days after infestation
Method: Example B8: Activity Against Myzus persicae (Green Peach Aphid)
Sunflower leaf discs were placed on agar in a 24-well microtiter plate and sprayed with aqueous test solutions prepared from 10′000 ppm DMSO stock solutions. After drying, the leaf discs were infested with an aphid population of mixed ages. The samples were assessed for mortality 6 days after infestation.

[3] = system: Myzus persicae (Green Peach Aphid); experiment: Example B9: Activity against Myzus persicae, systemic via pea seedling roots; conditions: 144 h, test rate 24 ppm, pea seedling roots in test solution, 6 days
Method: Example B9: Activity Against Myzus persicae (Green Peach Aphid)
Roots of pea seedlings infested with an aphid population of mixed ages were placed directly in the aqueous test solutions prepared from 10′000 DMSO stock solutions. The samples were assessed for mortality 6 days after placing seedlings in test solutions.

CCS(=O)(=O)c1cc(-c2cncnc2)cnc1C(=O)N(C)c1nnc(C(F)(F)F)s1 [Compound P58]
≥ 80%: percent effect (mortality or growth inhibition) at 200 ppm [1] | mortality at 200 ppm [2] | mortality at 24 ppm [3]
